Where two headings read alike, the source gives them in different places.
Tests used:
[1] = biological target: CYP3A4 (Homo sapiens (Human), UniProt P08684); assay: Cytochrome P450 inhibition assay, recombinant CYP3A4 (BFC substrate); format: in vitro ADME; details: recombinant enzyme
[2] = biological target: human dopamine transporter (Homo sapiens (Human), UniProt Q01959); assay: Human DAT (dopamine transporter) uptake assay; format: cell-based; details: read-out: hDAT Ki
Method: This protocol was designed to measure inhibition of uptake by the human dopamine transporter. […] The Assay Buffer (AB) was 1×HBSS and 0.02 M HEPES.
(§1) The HEK293F cells were transfected with the human dopamine transporter and frozen in 1 mL aliquots at about 1E+07 cells/mL. On the day of the experiment, the cells were removed from −80° C. or liquid nitrogen and thawed in a room temperature water bath. The cells were dilute to about 1-2E+06 with Freestyle medium. A 1 mL sample (1:2 dilution) was prepared, and the cells were counted. The cells were spun at 1100 rpm for 5 minutes, and the medium was aspirated off. The cells were resuspend in medium at 1.5E+06 cells/mL for about 60,000 cells per well. 40 μL of cells were dispensed per well in the Biocoat plates. The plates were spun at 1100 rpm for 1 minute to improve homogeneity of the cell layer and were incubated at 37° C. for a minimum of 3 hours.
12 μL of test compound (10 mM) in DMSO was added to the wells, and nomifensine was used as a control. […] The neurotransmitter transporter dye was prepared in AB prior to use.
Due to the proprietary nature of the dye formulation, all dye concentrations were expressed as a percentage of the vendor-recommended dye reconstitution. Thus, the above calculations were valid when both [dye] and K1 were expressed in the same units (%). Compounds were tested in triplicate (n=3).

[3] = biological target: human serotonin transporter (Homo sapiens (Human), UniProt P31645); assay: Human SERT (serotonin transporter) uptake assay; format: cell-based; details: read-out: hSERT Ki
Sequence of human serotonin transporter (P31645 whole entry): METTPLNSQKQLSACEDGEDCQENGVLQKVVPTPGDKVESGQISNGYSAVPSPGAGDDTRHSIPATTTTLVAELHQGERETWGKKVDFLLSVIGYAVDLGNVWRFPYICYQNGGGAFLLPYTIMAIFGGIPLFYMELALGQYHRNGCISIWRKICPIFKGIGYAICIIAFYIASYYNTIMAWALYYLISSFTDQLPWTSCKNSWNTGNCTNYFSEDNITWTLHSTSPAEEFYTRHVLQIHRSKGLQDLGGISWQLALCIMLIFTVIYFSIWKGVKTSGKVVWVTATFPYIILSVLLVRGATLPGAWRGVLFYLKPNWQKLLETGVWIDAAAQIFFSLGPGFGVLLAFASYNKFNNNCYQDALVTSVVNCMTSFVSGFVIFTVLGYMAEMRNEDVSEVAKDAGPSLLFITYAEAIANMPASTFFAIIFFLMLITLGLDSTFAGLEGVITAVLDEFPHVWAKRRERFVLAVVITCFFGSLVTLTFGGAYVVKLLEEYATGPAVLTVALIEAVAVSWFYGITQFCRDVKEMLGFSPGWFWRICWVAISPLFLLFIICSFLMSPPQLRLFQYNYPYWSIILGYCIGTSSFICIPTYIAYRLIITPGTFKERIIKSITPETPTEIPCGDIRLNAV
Method: This protocol was designed to measure inhibition of uptake by the human serotonin transporter. […] The Assay Buffer (AB) was […] and 0.02 M HEPES.
as §1, with “serotonin” for “dopamine”
12 μL of test compound (10 mM) in DMSO was added to the wells, and nomifensine was used as a control. Fluoxetine (final assay concentration of 10 μM) was used for background signal. The neurotransmitter transporter dye was prepared in AB prior to use.
Due to the proprietary nature of the dye formulation, all dye concentrations were expressed as a percentage of the vendor-recommended dye reconstitution. Thus, the above calculations were valid when both [dye] and Km were expressed in the same units (%). Compounds were tested in triplicate (n=3).

[4] = biological target: human norepinephrine transporter (Homo sapiens (Human), UniProt P23975); assay: Human NET (norepinephrine transporter) uptake assay; format: cell-based; details: read-out: hNET Ki
Sequence of human norepinephrine transporter (P23975 whole entry): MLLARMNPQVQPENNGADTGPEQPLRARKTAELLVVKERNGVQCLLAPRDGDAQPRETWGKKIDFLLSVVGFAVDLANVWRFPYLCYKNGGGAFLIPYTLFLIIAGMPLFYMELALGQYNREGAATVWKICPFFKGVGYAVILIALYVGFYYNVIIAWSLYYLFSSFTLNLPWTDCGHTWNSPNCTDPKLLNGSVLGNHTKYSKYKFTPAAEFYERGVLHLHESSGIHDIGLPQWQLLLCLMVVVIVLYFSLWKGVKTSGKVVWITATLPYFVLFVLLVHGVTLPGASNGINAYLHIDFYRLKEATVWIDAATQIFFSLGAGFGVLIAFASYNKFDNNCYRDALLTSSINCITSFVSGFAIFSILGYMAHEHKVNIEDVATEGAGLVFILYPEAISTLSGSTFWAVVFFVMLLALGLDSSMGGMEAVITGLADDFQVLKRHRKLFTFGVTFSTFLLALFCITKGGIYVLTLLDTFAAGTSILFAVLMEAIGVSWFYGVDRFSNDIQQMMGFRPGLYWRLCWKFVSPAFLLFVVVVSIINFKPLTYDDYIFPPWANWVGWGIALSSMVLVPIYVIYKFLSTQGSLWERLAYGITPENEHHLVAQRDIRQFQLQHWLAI
In short: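 HEK293F cells transfected with human NET were thawed, plated at about 60,000 cells/well and held at 37 °C for at least 3 h. Compounds came from 10 mM DMSO stocks, with nomifensine as control, in 1×HBSS/0.02 M HEPES. Uptake was followed with a neurotransmitter transporter dye, dosed as % of vendor reconstitution, in triplicate.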

[5] = pKa of basic centres (Table 1); format: physicochemical
[6] = biological target: CYP2D6 (Homo sapiens (Human), UniProt P10635); assay: Cytochrome P450 inhibition assay, recombinant CYP2D6 (MAMC substrate); format: in vitro ADME; details: recombinant enzyme
Sequence of CYP2D6 (P10635 whole entry): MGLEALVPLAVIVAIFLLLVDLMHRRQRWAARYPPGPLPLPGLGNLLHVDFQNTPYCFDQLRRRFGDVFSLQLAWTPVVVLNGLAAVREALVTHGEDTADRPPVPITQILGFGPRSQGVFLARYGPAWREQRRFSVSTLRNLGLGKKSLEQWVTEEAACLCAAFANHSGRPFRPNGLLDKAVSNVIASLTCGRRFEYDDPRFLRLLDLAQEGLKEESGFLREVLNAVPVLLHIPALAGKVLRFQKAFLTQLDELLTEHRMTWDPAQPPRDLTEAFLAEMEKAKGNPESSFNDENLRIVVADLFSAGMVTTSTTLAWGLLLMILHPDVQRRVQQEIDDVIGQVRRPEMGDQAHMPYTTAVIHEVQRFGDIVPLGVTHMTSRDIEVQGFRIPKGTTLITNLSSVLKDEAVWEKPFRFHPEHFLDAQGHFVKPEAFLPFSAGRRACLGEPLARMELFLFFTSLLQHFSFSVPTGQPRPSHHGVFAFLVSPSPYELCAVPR
Method: Recombinant enzymes, 3A4 and 2D6, generated using the ABL yeast expression system were used. […] The assay mixture also included K2HPO4 (pH 7.4; conc. 0.1 M) and NADPH (conc. 1 mM). The incubation time was 30 minutes, and the reference inhibitor was A-naphthoflavone. For CYP2D6, the enzyme amount was 2 pmol per well, and the substrate (7-methoxy-4-(aminomethyl)-coumarin; MAMC) was used at 20 μM. The assay mixture also included K2HPO4 (pH 7.4; conc. 0.1 M) and NADPH (conc. 0.06 mM). The incubation time was 35 minutes, and the reference inhibitor was quinidine.
Briefly, 0.6 μL of serially diluted compound was added to 75 μL water. 10 μL of diluted compound in water was then added to each assay plate. 20 μL of a K2HPO4, enzyme, and substrate mixture was added. After 10 minutes of room temperature pre-incubation, 10 μL of NADPH was added, and the plates were placed at 37° C. for 30 or 35 minutes depending on the enzyme being tested. After the incubation was complete, 20 μL of 0.1% Tris/ACN was added to the plate. The plate was read on a FluorStar fluorescence plate reader.

[7] = first base, e.g., an aliphatic primary, secondary, or tertiary amine, read-out: pKa (Base 1)
[8] = second base in the same molecule (if present), read-out: pKa (Base 2)

Sequence of human dopamine transporter (Q01959 whole entry): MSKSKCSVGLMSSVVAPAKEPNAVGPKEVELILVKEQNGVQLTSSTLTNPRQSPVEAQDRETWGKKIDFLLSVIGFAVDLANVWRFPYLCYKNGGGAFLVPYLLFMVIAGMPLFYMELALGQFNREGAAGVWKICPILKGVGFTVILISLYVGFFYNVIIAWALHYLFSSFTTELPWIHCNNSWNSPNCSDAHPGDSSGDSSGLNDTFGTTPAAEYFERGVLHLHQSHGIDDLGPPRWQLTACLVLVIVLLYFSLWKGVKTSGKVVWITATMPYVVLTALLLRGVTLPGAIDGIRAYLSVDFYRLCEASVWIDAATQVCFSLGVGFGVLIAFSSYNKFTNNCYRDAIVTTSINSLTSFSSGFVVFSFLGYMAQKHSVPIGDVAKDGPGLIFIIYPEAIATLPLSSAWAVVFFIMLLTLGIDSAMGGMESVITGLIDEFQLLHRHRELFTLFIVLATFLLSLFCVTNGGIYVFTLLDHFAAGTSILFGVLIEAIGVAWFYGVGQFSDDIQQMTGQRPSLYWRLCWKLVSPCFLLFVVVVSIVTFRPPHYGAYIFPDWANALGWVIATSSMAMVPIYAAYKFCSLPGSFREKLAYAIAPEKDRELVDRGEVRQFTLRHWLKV
Sequence of CYP3A4 (P08684 whole entry): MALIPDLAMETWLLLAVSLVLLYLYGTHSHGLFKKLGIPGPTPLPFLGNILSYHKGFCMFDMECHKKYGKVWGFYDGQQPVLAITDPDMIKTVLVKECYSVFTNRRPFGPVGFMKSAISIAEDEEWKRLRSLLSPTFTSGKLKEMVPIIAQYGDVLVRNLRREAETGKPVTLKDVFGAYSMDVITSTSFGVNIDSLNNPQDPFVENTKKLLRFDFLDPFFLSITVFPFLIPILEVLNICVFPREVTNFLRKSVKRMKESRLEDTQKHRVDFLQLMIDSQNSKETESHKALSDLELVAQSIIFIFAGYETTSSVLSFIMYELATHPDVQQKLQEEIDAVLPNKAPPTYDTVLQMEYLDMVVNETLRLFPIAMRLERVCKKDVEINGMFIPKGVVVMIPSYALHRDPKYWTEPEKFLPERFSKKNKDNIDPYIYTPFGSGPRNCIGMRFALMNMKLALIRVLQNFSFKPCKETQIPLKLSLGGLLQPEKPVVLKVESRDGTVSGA

IC50 [1]	Ki [2]	Ki [3]	Ki [4]	pKa [5, 7]	IC50 [6]	pKa [5, 8]	SMILES
2000 nM	31.8 nM	935 nM	126 nM	9.4	44 nM	–	CNC[C@H](c1ccc(Cl)c(Cl)c1)[C@@H](O)c1ccccc1I [Compound 152]
20000 nM	10.9 nM	2.5 nM	1.4 nM	6.6	300 nM	–	CN1CO[C@H](c2ccccc2)[C@@H](c2ccc3ccccc3c2)C1 [Compound 4]
19000 nM	126 nM	727 nM	82.2 nM	8.5	2400 nM	–	NCC(c1ccc2ccccc2c1)C(O)c1ccc(F)cc1F (centres unmarked) [Compound 107]
4600 nM	144 nM	178 nM	89.3 nM	9.5	780 nM	4.9	CNC[C@H](c1ccc(Cl)c(Cl)c1)[C@H](O)c1cccc(N(C)C)c1 (single isomer, unassigned) [Compound 168]
20000 nM	53.4 nM	140 nM	88.4 nM	9.2	580 nM	–	CNC[C@@H](c1ccc(Cl)c(Cl)c1)[C@@H](O)c1cccc(OC)n1 [Compound 157]
14000 nM	110 nM	192 nM	80 nM	9.4	730 nM	–	CNC[C@H](c1ccc(Cl)c(Cl)c1)[C@@H](O)c1cccc(SC)c1 [Compound 163]
20000 nM	193 nM	3040 nM	2630 nM	9.4	19000 nM	–	CNC[C@@H](c1ccc(Cl)c(Cl)c1)[C@@H](O)c1ccccc1[S+](C)[O-] (some centres unmarked) [Compound 128]
18000 nM	273 nM	154 nM	148 nM	8.6	2900 nM	5.1	NCC[C@@H](Cc1cccnc1)c1ccc(Cl)c(Cl)c1 [Compound 112]
240 nM	132 nM	36.9 nM	92.4 nM	9.3	630 nM	4.5	CNC[C@H](c1ccc(Cl)c(Cl)c1)[C@H](O)c1cncc(OC)c1 [Compound 166]
20000 nM	92 nM	1850 nM	454 nM	9.2	2000 nM	3.2	CNC[C@@H](c1ccc(Cl)c(Cl)c1)[C@@H](O)c1cccnc1OC [Compound 171]
20000 nM	80.5 nM	3280 nM	649 nM	9.4	15000 nM	–	CNC[C@H](c1ccc(Cl)c(Cl)c1)[C@@H](O)c1cccc(NS(=O)(=O)C(F)(F)F)c1 [Compound 127]
16000 nM	1570 nM	5.2 nM	167 nM	9.8	220 nM	–	CNC[C@H](c1ccc(-c2ccccc2)cc1)[C@H](O)c1ccccc1 (racemic) [Compound 113]
20000 nM	39.7 nM	1690 nM	195 nM	9.4	15000 nM	–	CNC[C@@H](c1ccc(Cl)c(Cl)c1)[C@@H](O)c1cccc([S+](C)[O-])c1 (single isomer, unassigned) [Compound 116]
7900 nM	75.5 nM	1780 nM	257 nM	9.4	4100 nM	4.3	CNC[C@@H](c1ccc(Cl)c(Cl)c1)[C@@H](O)c1cccc(N)c1 [Compound 119]
10000 nM	52.7 nM	116 nM	34.6 nM	9.4	580 nM	–	NC[C@@H](Cc1ccccc1O)c1ccc2ccccc2c1 [Compound 133]

— US9944618B2, “Inhibiting neurotransmitter reuptake” (Mayo Foundation for Medical Education and Research, priority 2013, dated 2018)
